Where only a bound is given, the exact number is not on record here.

One data set in a line: precipitation of fermentatively prepared carboxylic acid after acidification.
Conditions: not given
It is filed as physicochemical. The text has this: The invention is based on the observation that sparingly soluble carboxylic acids such as fumaric acid and adipic acid cannot be worked up satisfactorily using the known purification methods. […] In order to compensate for the resulting loss of product, alternative purification methods are necessary.
Regarding `O=C(O)/C=C/C(=O)O` [fumaric acid], the “concentration above which the acid precipitates after acidification” value is on record as “about 5 g/l”.

Another data set is described as follows: physchem. To be noted: 20 °C, water.
The compound `CSCC[C@H](N)C(=O)O` [methionine] had a solubility of at most 50 mg/mL.
The same measure, in the same setting: the result for `N[C@@H](Cc1ccccc1)C(=O)O` [phenylalanine] reads at most 50 mg/mL; that for `O=C(O)c1ccccc1O` [salicylic acid], at most 15 mg/mL.
Still for that read-out and setting: the result for `O=C(O)/C=C/C(=O)O` [fumaric acid] reads at most 15 mg/mL.
Compound `N[C@@H](Cc1c[nH]cn1)C(=O)O` [histidine] yielded a solubility of at most 50 mg/mL.
Same read-out and setting: the result for `CC[C@H](C)[C@H](N)C(=O)O` [isoleucine] reads at most 50 mg/mL; that for `CC(C)C[C@H](N)C(=O)O` [leucine], at most 50 mg/mL.

(Values after US20180290961A1, “METHOD AND SYSTEM FOR OBTAINING A CARBOXYLIC ACID WHICH IS PRODUCED IN A FERMENTATION PROCESS” (THYSSENKRUPP INDUSTRIAL SOLUTIONS AG, priority 2015, published 2018).)
